# Measurements: patent US10577378B2, “EIF4A-inhibiting compounds and methods related thereto” (eFFECTOR Therapeutics, Inc., priority 2015, dated 2020)
# Tested on: MDA-MB-231 human breast cancer cells
# Assay: Cell proliferation assay (CellTiter-Glo, 72 hours treatment)
# Assay type: cell-based
# Conditions: Homo sapiens, MDA-MB-231, 72 h, read-out: MDA-MB-231 cell proliferation assay (IC50)
# In short: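 IC50 categories: under 100 nM +++, 100–1000 nM ++, above 1000 nM +, derived by sigmoidal curve fitting of CellTiter-Glo luminescence. Cells plated at 2,500 per well, dosed the following day and exposed 72 h at 37 °C versus DMSO control.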
row,SMILES,IC50
1,"COc1cncc2c1[C@]1(O)[C@@H](CN3CCN(C)CC3)[C@H](CO)[C@@H](c3ccccc3)[C@]1(c1ccc(Br)cc1)O2 (racemic) [183F, Rac-(4bR,5R,6R,7S,7aR)-7a-(4-bromophenyl)-6-(hydroxymethyl)-4-methoxy-5-((4-methylpiperazin-1-yl)methyl)-7-phenyl-5,6,7,7a-tetrahydro-4bH-cyclopenta[4,5]furo[2,3-c]pyridin-4b-ol]",< 0.1 µM

# Same assay, conditions: Homo sapiens; MDA-MB-231 cells, 72 hours at 37° C., CellTiter-Glo; read-out: MDA-MB-231 cell proliferation assay (IC50)
row,SMILES,IC50
1,"COc1nc(C#N)cc2c1[C@]1(O)[C@H](O)[C@H](CN3CCC(F)(F)C3)[C@@H](c3ccccc3)[C@]1(c1ccc(C#N)cc1)O2 (racemic) [153F, Rac-(5aR,6S,7S,8R,8aS)-5a-(4-cyanophenyl)-7-((3,3-difluoropyrrolidin-1-yl)methyl)-8,8a-dihydroxy-1-methoxy-6-phenyl-5a,7,8,8a-tetrahydro-6H-cyclopenta[4,5]furo[3,2-c]pyridine-3-carbonitrile]",0.1 to 1 µM
2,"COCCN(C)C[C@H]1[C@@H](O)[C@@]2(O)c3c(OC)cncc3O[C@@]2(c2ccc(C#N)cc2)[C@@H]1c1ccccc1 (single isomer, unassigned) [261F]",< 0.1 µM
3,"COc1cncc2c1[C@]1(O)[C@H](O)[C@H](S(=O)(=O)N3CCOCC3)[C@@H](c3ccccc3)[C@]1(c1ccc(C#N)cc1)O2 (single isomer, unassigned) [126F]",0.1 to 1 µM
4,"C=C1C[C@@H](c2ccccc2)[C@]2(c3ccc(Br)cc3)Oc3cc(Cl)cnc3[C@]12O (racemic) [34F, Rac-(5aR,6S,8aR)-5a-(4-bromophenyl)-3-chloro-8-methylene-6-phenyl-5a,6,7,8-tetrahydro-8aH-cyclopenta[4,5]furo[3,2-b]pyridin-8a-ol]",> 1 µM
5,"COc1cncc2c1[C@]1(O)[C@H](O)[C@H](CN3CCC(F)(F)C3)[C@@H](c3ccccc3)[C@]1(c1ccc(C#N)cc1)O2 (single isomer, unassigned) [280F]",0.1 to 1 µM
6,"N#Cc1ccc([C@@]23Oc4cc(C#N)cnc4[C@]2(O)[C@@H](CN)C[C@H]3c2ccccc2)cc1 (racemic) [176F, rac-(5aR,6S,8R,8aR)-8-(aminomethyl)-5a-(4-cyanophenyl)-8a-hydroxy-6-phenyl-5a,7,8,8a-tetrahydro-6H-cyclopenta[4,5]furo[3,2-b]pyridine-3-carbonitrile]",0.1 to 1 µM
7,"CN(C)C(=O)[C@H]1[C@@H](O)[C@@]2(O)c3ccncc3O[C@@]2(c2ccc(C#N)cc2)[C@@H]1c1ccccc1 (single isomer, unassigned) [95F]",0.1 to 1 µM
8,"CCNC[C@@H]1[C@@H](c2ccccc2)[C@]2(C3=CC=C(C#N)CC3)Oc3cncc(OC)c3[C@]2(O)[C@@H]1O (racemic) [70F, Rac-4-((4bS,5R,6S,7S,7aR)-6-((ethylamino)methyl)-4b,5-dihydroxy-4-methoxy-7-phenyl-4b,5,6,7-tetrahydro-7aH-cyclopenta[4,5]furo[2,3-c]pyridin-7a-yl)cyclohexa-1,3-diene-1-carbonitrile]",0.1 to 1 µM
9,"COc1nc(C#N)cc2c1[C@]1(O)[C@H](O)[C@H](CN3CCN(C)CC3)[C@@H](c3ccccc3)[C@]1(c1ccc(C#N)cc1)O2 (racemic) [198Fb, Rac-(5aR,6S,7S,8R,8aS)-5a-(4-cyanophenyl)-8,8a-dihydroxy-1-methoxy-7-((4-methylpiperazin-1-yl)methyl)-6-phenyl-5a,7,8,8a-tetrahydro-6H-cyclopenta[4,5]furo[3,2-c]pyridine-3-carbonitrile]",< 0.1 µM
10,"OC[C@H]1[C@@H](O)[C@@]2(O)c3ncc(Cl)cc3O[C@@]2(c2ccc(Br)cc2)[C@@H]1c1ccccc1 (racemic) [55F, Rac-(5aR,6S,7S,8R,8aS)-5a-(4-bromophenyl)-3-chloro-7-(hydroxymethyl)-6-phenyl-5a,6,7,8-tetrahydro-8aH-cyclopenta[4,5]furo[3,2-b]pyridine-8,8a-diol]",0.1 to 1 µM
11,"COc1nc(C#N)cc2c1[C@]1(O)[C@H](O)[C@H](CN3CC(C(F)F)C3)[C@@H](c3ccccc3)[C@]1(c1ccc(C#N)cc1)O2 (racemic) [218F, Rac-(5aR,6S,7S,8R,8aS)-5a-(4-cyanophenyl)-7-((3-(difluoromethyl)azetidin-1-yl)methyl)-8,8a-dihydroxy-1-methoxy-6-phenyl-5a,7,8,8a-tetrahydro-6H-cyclopenta[4,5]furo[3,2-c]pyridine-3-carbonitrile]",< 0.1 µM
12,"CN(C)C[C@H]1[C@@H](O)[C@@]2(O)c3ncc(Cl)cc3O[C@@]2(c2ccc(C#N)cc2)[C@@H]1c1ccccc1 (racemic) [40Fb, rac-4-((5aR,6S,7S,8R,8aS)-3-chloro-7-((dimethylamino)methyl)-8,8a-dihydroxy-6-phenyl-6,7,8,8a-tetrahydro-5aH-cyclopenta[4,5]furo[3,2-b]pyridin-5a-yl)benzonitrile]",0.1 to 1 µM
13,"COc1nccc2c1[C@]1(O)[C@H](O)[C@H](CN(C)C)[C@@H](c3ccccc3)[C@]1(c1ccc(C(F)F)cc1)O2 (racemic) [148F, Rac-(5aR,6S,7S,8R,8aS)-5a-(4-(difluoromethyl)phenyl)-7-((dimethylamino)methyl)-1-methoxy-6-phenyl-5a,6,7,8-tetrahydro-8aH-cyclopenta[4,5]furo[3,2-c]pyridine-8,8a-diol]",> 1 µM
14,"COc1cncc2c1[C@]1(O)[C@H](O)[C@H](C(=O)N3CCOCC3)[C@@H](c3ccccc3)[C@]1(c1ccc(C(F)(F)F)cc1)O2 (racemic) [281F, rac-((4bS,5R,6R,7S,7aR)-4b,5-dihydroxy-4-methoxy-7-phenyl-7a-(4-(trifluoromethyl)phenyl)-4b,6,7,7a-tetrahydro-5H-cyclopenta[4,5]furo[2,3-c]pyridin-6-yl)(morpholino)methanone]",0.1 to 1 µM
15,"COc1nc(C#N)cc2c1[C@]1(O)[C@H](O)[C@H](CN3CCCC3)[C@@H](c3ccccc3)[C@]1(c1ccc(Br)cc1)O2 (racemic) [158Fa, Rac-(5aR,6S,7S,8R,8aS)-5a-(4-bromophenyl)-8,8a-dihydroxy-1-methoxy-6-phenyl-7-(pyrrolidin-1-ylmethyl)-5a,7,8,8a-tetrahydro-6H-cyclopenta[4,5]furo[3,2-c]pyridine-3-carbonitrile]",< 0.1 µM
16,"COc1cncc2c1[C@]1(O)[C@H](O)[C@H](CNC3COC3)[C@@H](c3ccccc3)[C@]1(c1ccc(C#N)cc1)O2 (racemic) [240F, Rac-4-((4bS,5R,6S,7S,7aR)-4b,5-dihydroxy-4-methoxy-6-((oxetan-3-ylamino)methyl)-7-phenyl-4b,5,6,7-tetrahydro-7aH-cyclopenta[4,5]furo[2,3-c]pyridin-7a-yl)benzonitrile]",0.1 to 1 µM
17,"COc1cncc2c1[C@]1(O)[C@H](O)[C@H](C(=O)N(C)Cc3cccnc3)[C@@H](c3ccccc3)[C@]1(c1ccc(Br)cc1)O2 (racemic) [277F, Rac-(4bS,5R,6R,7S,7aR)-7a-(4-bromophenyl)-4b,5-dihydroxy-4-methoxy-N-methyl-7-phenyl-N-(pyridin-3-ylmethyl)-4b,6,7,7a-tetrahydro-5H-cyclopenta[4,5]furo[2,3-c]pyridine-6-carboxamide]",< 0.1 µM
18,"N#Cc1ccc([C@@]23Oc4cc(Cl)cnc4[C@]2(O)[C@@H](O)C[C@H]3c2ccccc2)cc1 (racemic) [131F, Rac-4-((5aR,6S,8S,8aS)-3-chloro-8,8a-dihydroxy-6-phenyl-6,7,8,8a-tetrahydro-5aH-cyclopenta[4,5]furo[3,2-b]pyridin-5a-yl)benzonitrile]",> 1 µM

# Same assay, conditions: MDA-MB-231 cells, 72 hours at 37° C., CellTiter-Glo; read-out: MDA-MB-231 cell proliferation assay (IC50)
row,SMILES,IC50
1,CN(C)C[C@H]1[C@@H](O)[C@@]2(O)c3ncc(C#N)cc3O[C@@]2(c2ccc(C#N)cc2)[C@@H]1c1ccccc1 [105F],> 1 µM
